Results on 27 compounds are retold here after patent publication US9540343B2 (Gilead Sciences, Inc., priority 2011, dated 2017).

The test system of the first test is HIV-IIIb. Briefly: Test A: Antiviral assay in MT4 cells. Format: cell-based, HIV-1. To be noted: Human immunodeficiency virus 1, IIIB, MT4, 120 h, read-out: % inhibition at 2 μM, percent inhibition of virus-induced cell killing, from dose response curve at 2 uM drug; MT-4 cells infected with HIV-IIIb, 5 days, CellTiter-Glo.
In the case of `NC(=O)c1cc(-c2cccnc2[C@H](Cc2cc(F)cc(F)c2)NC(=O)Cn2nc(C(F)(F)F)c3c2CCC3)ccc1F` [Example 134, (S)-5-(2-(2-(3,5-difluorophenyl)-1-(2-(3-(trifluoromethyl)-5,6-dihydrocyclopenta[c]pyrazol-1(4H)-yl)acetamido)ethyl)pyridin-3-yl)-2-fluorobenzamide], the inhibition (commonly the drop in the measured response relative to a control, in per cent) at 2 µM was 98%. Same read-out and setting: for `NC(=O)c1cc(-c2cccnc2[C@H](Cc2cc(F)cc(F)c2)NC(=O)Cn2nc(C(F)(F)F)c3c2CC2CC32)ccc1F` (stereo partly drawn) [Example 122G, 5-(2-((1S)-2-(3,5-difluorophenyl)-1-(2-(3-(trifluoromethyl)-3b,4,4a,5-tetrahydro-1H-cyclopropa[3,4]cyclopenta[1,2-c]pyrazol-1-yl)acetamido)ethyl)pyridin-3-yl)-2-fluorobenzamide] the value was 101%; for `NC(=O)c1cc(-c2cccnc2[C@H](Cc2cc(F)cc(F)c2)NC(=O)Cn2nc(C(F)F)c(C3CC3)c2C(F)F)ccc1F` [Example 562, (S)-5-(2-(1-(2-(4-cyclopropyl-3,5-bis(difluoromethyl)-1H-pyrazol-1-yl)acetamido)-2-(3,5-difluorophenyl)ethyl)pyridin-3-yl)-2-fluorobenzamide], 42%. `NC(=O)c1cc(-c2cccnc2[C@H](Cc2cc(F)cc(F)c2)NC(=O)Cn2nc(C(F)(F)F)c3c2C(F)(F)C2CC32)ccc1F` (stereo partly drawn) [Example 181E, 5-(2-((1S)-1-(2-(5,5-difluoro-3-(trifluoromethyl)-3b,4,4a,5-tetrahydro-1H-cyclopropa[3,4]cyclopenta[1,2-c]pyrazol-1-yl)acetamido)-2-(3,5-difluorophenyl)ethyl)pyridin-3-yl)-2-fluorobenzamide]: the inhibition at 2 µM worked out at 99%. Same read-out and setting: for `NC(=O)c1cccc(-c2cccnc2[C@H](Cc2cc(F)cc(F)c2)NC(=O)Cn2ccc3ccccc32)c1` [Example 426, (S)-3-(2-(1-(2-(1H-indol-1-yl)acetamido)-2-(3,5-difluorophenyl)ethyl)pyridin-3-yl)benzamide] the value was 19%; for `NC(=O)c1cc(-c2cccnc2[C@H](Cc2cc(F)cc(F)c2)NC(=O)Cn2nc(C(F)F)c3c2C(F)(F)CCC3(F)F)ccc1F` [Example 344, (S)-5-(2-(1-(2-(3-(difluoromethyl)-4,4,7,7-tetrafluoro-4,5,6,7-tetrahydro-1H-indazol-1-yl)acetamido)-2-(3,5-difluorophenyl)ethyl)pyridin-3-yl)-2-fluorobenzamide], 93%. For the compound `NC(=O)c1cc(-c2cccnc2[C@H](Cc2cc(F)cc(F)c2)NC(=O)Cn2nc(C(F)(F)F)c3c2C[C@H]2C[C@@H]32)ccc1F` (single isomer, unassigned) [Example 173], the inhibition at 2 µM was found to be 94%. On to `NC(=O)c1cc(-c2cccnc2[C@H](Cc2cc(F)cc(F)c2)NC(=O)Cn2nc(C(F)(F)F)c3c2C(F)(F)CCC3)ccc1F` [Example 311B, (S)-5-(2-(1-(2-(7,7-difluoro-3-(trifluoromethyl)-4,5,6,7-tetrahydro-1H-indazol-1-yl)acetamido)-2-(3,5-difluorophenyl)ethyl)pyridin-3-yl)-2-fluorobenzamide], for which the inhibition at 2 µM is 97%. Consider `O=C(Cc1c[nH]c2ccc(O)cc12)N[C@@H](Cc1cc(F)cc(F)c1)c1ncncc1-c1ccc(Cl)cc1` [Example 316, (S)—N-(1-(5-(4-chlorophenyl)pyrimidin-4-yl)-2-(3,5-difluorophenyl)ethyl)-2-(5-hydroxy-1H-indol-3-yl)acetamide], for which the inhibition at 2 µM was found to be 100%. As for `NC(=O)c1cc(-c2cccnc2[C@H](Cc2cc(F)cc(F)c2)NC(=O)Cn2nc(C(F)(F)F)c3c2CCOC3)ccc1F` [Example 112B, (S)-5-(2-(2-(3,5-difluorophenyl)-1-(2-(3-(trifluoromethyl)-6,7-dihydropyrano[4,3-c]pyrazol-1(4H)-yl)acetamido)ethyl)pyridin-3-yl)-2-fluorobenzamide], the inhibition at 2 µM was found to be 28%. The same measure, in the same setting: the same measure for `NC(=O)c1cc(-c2cccnc2[C@H](Cc2cc(F)cc(F)c2)NC(=O)Cn2nc(C(F)(F)F)c3c2CCCC3)ccc1F` [Example 589, (S)-5-(2-(2-(3,5-difluorophenyl)-1-(2-(3-(trifluoromethyl)-4,5,6,7-tetrahydro-1H-indazol-1-yl)acetamido)ethyl)pyridin-3-yl)-2-fluorobenzamide]: 106%; for `NC(=O)c1cc(-c2cccnc2[C@H](Cc2cc(F)cc(F)c2)NC(=O)Cn2nc(C(F)F)c3c2C(F)(F)C2CC32)ccc1F` (single isomer, unassigned) [Example 215]: 80%. In the case of `NC(=O)c1cc(-c2cccnc2[C@H](Cc2cc(F)cc(F)c2)NC(=O)Cn2nc(C(F)(F)F)c3ccccc32)ccc1F` [Example 250, (S)-5-(2-(2-(3,5-difluorophenyl)-1-(2-(3-(trifluoromethyl)-1H-indazol-1-yl)acetamido)ethyl)pyridin-3-yl)-2-fluorobenzamide], the inhibition at 2 µM was found to be 19%. Consider `NC(=O)c1cc(-c2cccnc2[C@H](Cc2cc(F)cc(F)c2)NC(=O)Cn2nc(C(F)(F)F)c3c2CNCC3)ccc1F` [Example 352, (S)-5-(2-(2-(3,5-difluorophenyl)-1-(2-(3-(trifluoromethyl)-4,5,6,7-tetrahydro-1H-pyrazolo[3,4-c]pyridin-1-yl)acetamido)ethyl)pyridin-3-yl)-2-fluorobenzamide], for which the inhibition at 2 µM worked out at 16%. As for `NC(=O)c1cc(-c2cccnc2[C@H](Cc2cc(F)cc(F)c2)NC(=O)Cn2ccc(C(F)(F)F)n2)ccc1F` [Example 455, (S)-5-(2-(2-(3,5-difluorophenyl)-1-(2-(3-(trifluoromethyl)-1H-pyrazol-1-yl)acetamido)ethyl)pyridin-3-yl)-2-fluorobenzamide], the inhibition at 2 µM came to 4%. `O=C(Cc1c[nH]c2ccc(O)cc12)NC(Cc1cc(F)cc(F)c1)c1nccnc1-c1ccc(Cl)cc1` (stereo not drawn) [Example 443I, N-(1-(3-(4-chlorophenyl)pyrazin-2-yl)-2-(3,5-difluorophenyl)ethyl)-2-(5-hydroxy-1H-indol-3-yl)acetamide]: the inhibition at 2 µM worked out at 82%. Consider `NC(=O)c1cc(-c2cccnc2[C@H](Cc2cc(F)cc(F)c2)NC(=O)Cn2nc(C(F)(F)F)c3c2C2CC2C3)ccc1F` (stereo partly drawn) [Example 169E, 5-(2-((1S)-2-(3,5-difluorophenyl)-1-(2-(3-(trifluoromethyl)-4,4-a,5,5a-tetrahydro-1H-cyclopropa[4,5]cyclopenta[1,2-c]pyrazol-1-yl)acetamido)ethyl)pyridin-3-yl)-2-fluorobenzamide], for which the inhibition at 2 µM was 94%. For the compound `NC(=O)c1cc(-c2cccnc2[C@H](Cc2cc(F)cc(F)c2)NC(=O)Cn2nc(C(F)(F)F)c3c2CCCC3(F)F)ccc1F` [Example 102D, (S)-5-(2-(1-(2-(4,4-difluoro-3-(trifluoromethyl)-4,5,6,7-tetrahydro-1H-indazol-1-yl)acetamido)-2-(3,5-difluorophenyl)ethyl)pyridin-3-yl)-2-fluorobenzamide], the inhibition at 2 µM was 50%. With `NC(=O)c1cccc(-c2cccnc2[C@H](Cc2cc(F)cc(F)c2)NC(=O)Cc2c[nH]c3ccc(F)cc23)c1` [Example 50D, (S)-3-(2-(2-(3,5-difluorophenyl)-1-(2-(5-fluoro-1H-indol-3-yl)acetamido)ethyl)pyridin-3-yl)benzamide], the inhibition at 2 µM was 106%. For `NC(=O)c1cccc(-c2cccnc2[C@H](Cc2cc(F)cc(F)c2)NC(=O)Cc2c[nH]c3ccc(O)cc23)c1` [Example 39, (S)-3-(2-(2-(3,5-difluorophenyl)-1-(2-(5-hydroxy-1H-indol-3-yl)acetamido)ethyl)pyridin-3-yl)benzamide], the inhibition at 2 µM was 99%. `NC(=O)c1cc(-c2cccnc2[C@H](Cc2cc(F)cc(F)c2)NC(=O)Cn2nc(C(F)F)c3c2C(F)(F)C2CC32)ccc1F` (stereo partly drawn) [Example 60H, 5-(2-((1S)-1-(2-(3-(difluoromethyl)-5,5-difluoro-3b,4,4a,5-tetrahydro-1H-cyclopropa[3,4]cyclopenta[1,2-c]pyrazol-1-yl)acetamido)-2-(3,5-difluorophenyl)ethyl)pyridin-3-yl)-2-fluorobenzamide]: the inhibition at 2 µM was found to be 97%. As for `O=C(Cc1c[nH]c2ccc(O)cc12)N[C@H](Cc1cc(F)cc(F)c1)c1ncncc1-c1ccc(Cl)cc1` [Example 284, (R)—N-(1-(5-(4-chlorophenyl)pyrimidin-4-yl)-2-(3,5-difluorophenyl)ethyl)-2-(5-hydroxy-1H-indol-3-yl)acetamide], the inhibition at 2 µM stood at 50%. On to `NC(=O)c1cc(-c2cccnc2[C@H](Cc2cc(F)cc(F)c2)NC(=O)Cn2nc(C(F)F)c3c2C2CCC3C2)ccc1F` (stereo partly drawn) [Example 83, (S)-5-(2-(2-(3,5-difluorophenyl)-1-(2-(4,5,6,7-tetrahydro-3-difluoromethyl-4,7-(methano)indazol-1-yl)acetamido)ethyl)pyridin-3-yl)-2-fluorobenzamide], for which the inhibition at 2 µM turned out to be 92%. For `NC(=O)c1cc(-c2cccnc2[C@H](Cc2cc(F)cc(F)c2)NC(=O)Cn2nc(C(F)(F)F)c3c2C[C@@H]2C[C@H]32)ccc1F` (single isomer, unassigned) [Example 174], the inhibition at 2 µM came out at 71%.

Still in this test, the particulars now being: percent inhibition of virus-induced cell killing, from dose response curve at 2 uM drug; MT-4 cells infected with HIV-IIIb, 5 days, CellTiter-Glo.
For `NC(=O)c1cc(-c2cccnc2[C@H](Cc2cc(F)cc(F)c2)NC(=O)Cn2nc(C(F)(F)F)c3c2C(F)(F)C2CC32)ccc1F` (single isomer, unassigned) [Example 449], the % inhibition (in general, the change of the read-out against control, counted positive when it falls) at 2 μM turned out to be 94%. In the case of `NC(=O)c1cc(-c2cccnc2[C@H](Cc2cc(F)cc(F)c2)NC(=O)Cn2nc(C(F)(F)F)c3c2C(F)(F)C2CC32)ccc1F` (single isomer, unassigned) [Example 450], the “% inhibition at 2 μM” value is given as 33%.

In the case of `NC(=O)c1cc(-c2cccnc2[C@H](Cc2cc(F)cc(F)c2)NC(=O)Cn2nc(C(F)F)c3c2C(F)(F)C2CC32)ccc1F` (single isomer, unassigned) [Example 216], the “% inhibition at 2 μM” value was determined as 86%.
